Source: PubChem BioAssay AID2060614 (Molecular Pharmacology Branch, DTP, NCI, 2025)
Where “and” joins values, the source holds several entries; their conditions need not be identical. Equal values may be shown once.

System: 598228-144-R-J1-PDC complex spheroids, viability
Experiment: Anticancer human tumor 598228-144-R-J1-PDC patient-derived serous endometrial adenocarcinoma cell line growth inhibition [CLK]
Conditions: for viability, T/C: stronger effect = lower value
Summary of the method: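 Patient-derived tumor cells grown as complex spheroids with HUVEC endothelial cells and mesenchymal stem cells, treated with drug combinations. Concentrations descend in half-log steps from near clinical Cmax, or from 10 microM if Cmax unknown.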

[1] = curve of first compound, second compound 0.0316 µM
[2] = curve of first compound, second compound 0.1 µM
[3] = curve of first compound, second compound 0.316 µM
[4] = curve of first compound, second compound 1 µM
[5] = curve of first compound, second compound 3.16 µM
[6] = curve of first compound, second compound 10 µM
[7] = second compound 0.0316 µM, first compound 0.0316 µM
[8] = second compound 0.0316 µM, first compound 0.1 µM
[9] = second compound 0.0316 µM, first compound 0.316 µM
[10] = second compound 0.0316 µM, first compound 1 µM
[11] = second compound 0.0316 µM, first compound 3.16 µM
[12] = second compound 0.0316 µM, first compound 10 µM
[13] = second compound 0.1 µM, first compound 0.0316 µM
[14] = second compound 0.1 µM, first compound 0.1 µM
[15] = second compound 0.1 µM, first compound 0.316 µM
[16] = second compound 0.1 µM, first compound 1 µM
[17] = second compound 0.1 µM, first compound 3.16 µM
[18] = second compound 0.1 µM, first compound 10 µM
[19] = second compound 0.316 µM, first compound 0.0316 µM
[20] = second compound 0.316 µM, first compound 0.1 µM
[21] = second compound 0.316 µM, first compound 0.316 µM
[22] = second compound 0.316 µM, first compound 1 µM
[23] = second compound 0.316 µM, first compound 3.16 µM
[24] = second compound 0.316 µM, first compound 10 µM
[25] = second compound 1 µM, first compound 0.0316 µM
[26] = second compound 1 µM, first compound 0.1 µM
[27] = second compound 1 µM, first compound 0.316 µM
[28] = second compound 1 µM, first compound 1 µM
[29] = second compound 1 µM, first compound 3.16 µM
[30] = second compound 1 µM, first compound 10 µM
[31] = second compound 3.16 µM, first compound 0.0316 µM
[32] = second compound 3.16 µM, first compound 0.1 µM
[33] = second compound 3.16 µM, first compound 0.316 µM
[34] = second compound 3.16 µM, first compound 1 µM
[35] = second compound 3.16 µM, first compound 3.16 µM
[36] = second compound 3.16 µM, first compound 10 µM
[37] = second compound 10 µM, first compound 0.0316 µM
[38] = second compound 10 µM, first compound 0.1 µM
[39] = second compound 10 µM, first compound 0.316 µM
[40] = second compound 10 µM, first compound 1 µM
[41] = second compound 10 µM, first compound 3.16 µM
[42] = second compound 10 µM, first compound 10 µM
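Note: spheroids exposed to compounds for seven days before readout.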
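Throughout, for viability, T/C: 100% = DMSO vehicle control wells.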

## O=C(c1cc(Cc2n[nH]c(=O)c3ccccc23)ccc1F)N1CCN(C(=O)C2CC2)CC1 + CN1CCN(c2cc(C(=O)Nc3cc4cc(-c5cnn(C)c5)ccc4cn3)ccn2)CC1
[1]
  IC50: > 10000 nM
[2]
  IC50: > 10000 nM
[3]
  IC50: < 31.6 nM
[4]
  IC50: < 31.6 nM
[5]
  IC50: < 31.6 nM
[6]
  IC50: < 31.6 nM
[7]
  viability, T/C: 123%
[8]
  viability, T/C: 120%
[9]
  viability, T/C: 114%
[10]
  viability, T/C: 118%
[11]
  viability, T/C: 116%
[12]
  viability, T/C: 103%
[13]
  viability, T/C: 130%
[14]
  viability, T/C: 119%
[15]
  viability, T/C: 107%
[16]
  viability, T/C: 126%
[17]
  viability, T/C: 125%
[18]
  viability, T/C: 131%
[19]
  viability, T/C: 16.7%
[20]
  viability, T/C: 17.2%
[21]
  viability, T/C: 18.8%
[22]
  viability, T/C: 14.9%
[23]
  viability, T/C: 13.7%
[24]
  viability, T/C: 14.9%
[25]
  viability, T/C: 1.51%
[26]
  viability, T/C: 1.3%
[27]
  viability, T/C: 2.76%
[28]
  viability, T/C: 1.57%
[29]
  viability, T/C: 2.8%
[30]
  viability, T/C: 3.04%
[31]
  viability, T/C: 1.72%
[32]
  viability, T/C: 1.59%
[33]
  viability, T/C: 1.74%
[34]
  viability, T/C: 2.04%
[35]
  viability, T/C: 2.75%
[36]
  viability, T/C: 4.75%
[37]
  viability, T/C: 0.94%
[38]
  viability, T/C: 0.9%
[39]
  viability, T/C: 1.84%
[40]
  viability, T/C: 1.05%
[41]
  viability, T/C: 1.89%
[42]
  viability, T/C: 3.42%

## CC1COCCN1c1cc(C2(S(C)(=N)=O)CC2)nc(-c2ccnc3[nH]ccc23)n1 (stereo not drawn)
Compound 0.0316 µM
  viability, T/C: 96.7% and 86.2%
Compound 0.1 µM
  viability, T/C: 110% and 86.8%
Compound 0.316 µM
  viability, T/C: 98.8% and 87.7%
Compound 1 µM
  viability, T/C: 72.7% and 79%
Compound 3.16 µM
  viability, T/C: 58.1% and 61.5%
Compound 10 µM
  viability, T/C: 34.3% and 34.9%
Curve of compound
  IC50: 4040 nM and 5180 nM

## COC1C=CCC(C)C(C)S(=O)(=O)NC(=O)c2ccc3c(c2)N(CC2CCC21)CC1(CCCc2cc(Cl)ccc21)CO3 (stereo not drawn) + CN1CCN(c2cc(C(=O)Nc3cc4cc(-c5cnn(C)c5)ccc4cn3)ccn2)CC1
[1]
  IC50: 4710 nM
[2]
  IC50: 5350 nM
[3]
  IC50: < 31.6 nM
[4]
  IC50: < 31.6 nM
[5]
  IC50: < 31.6 nM
[6]
  IC50: < 31.6 nM
[7]
  viability, T/C: 128%
[8]
  viability, T/C: 107%
[9]
  viability, T/C: 85.1%
[10]
  viability, T/C: 75%
[11]
  viability, T/C: 69.2%
[12]
  viability, T/C: 29.5%
[13]
  viability, T/C: 122%
[14]
  viability, T/C: 111%
[15]
  viability, T/C: 86%
[16]
  viability, T/C: 76.9%
[17]
  viability, T/C: 65.5%
[18]
  viability, T/C: 36.4%
[19]
  viability, T/C: 15.7%
[20]
  viability, T/C: 18.8%
[21]
  viability, T/C: 16.8%
[22]
  viability, T/C: 16.6%
[23]
  viability, T/C: 20.5%
[24]
  viability, T/C: 18.9%
[25]
  viability, T/C: 1.74%
[26]
  viability, T/C: 1.81%
[27]
  viability, T/C: 3.02%
[28]
  viability, T/C: 1.14%
[29]
  viability, T/C: 1.71%
[30]
  viability, T/C: 4.93%
[31]
  viability, T/C: 1.85%
[32]
  viability, T/C: 3.92%
[33]
  viability, T/C: 1.47%
[34]
  viability, T/C: 1.24%
[35]
  viability, T/C: 2.51%
[36]
  viability, T/C: 3.08%
[37]
  viability, T/C: 0.94%
[38]
  viability, T/C: 0.82%
[39]
  viability, T/C: 0.72%
[40]
  viability, T/C: 0.85%
[41]
  viability, T/C: 2.37%
[42]
  viability, T/C: 3.73%

## CC(C)CC(NC(=O)C(Cc1ccccc1)NC(=O)c1cnccn1)B(O)O (stereo not drawn) + CNC(=O)c1ccc(Nc2nc(OC3CCCC3)c3c(-c4ccc5nc(C)oc5c4)c[nH]c3n2)c(OC)c1
[1]
  IC50: 4.68 nM
[2]
  IC50: 5.05 nM
[3]
  IC50: 3.47 nM
[4]
  IC50: 2.18 nM
[5]
  IC50: 2.08 nM
[6]
  IC50: 1.96 nM
Second compound 0.0316 µM, first compound 0.000949 µM
  viability, T/C: 111%
Second compound 0.0316 µM, first compound 0.003 µM
  viability, T/C: 79.8%
Second compound 0.0316 µM, first compound 0.00949 µM
  viability, T/C: 2.81%
Second compound 0.0316 µM, first compound 0.03 µM
  viability, T/C: 0.55%
Second compound 0.0316 µM, first compound 0.0949 µM
  viability, T/C: 0.7%
Second compound 0.0316 µM, first compound 0.3 µM
  viability, T/C: 0.37%
Second compound 0.1 µM, first compound 0.000949 µM
  viability, T/C: 127%
Second compound 0.1 µM, first compound 0.003 µM
  viability, T/C: 88.8%
Second compound 0.1 µM, first compound 0.00949 µM
  viability, T/C: 3.14%
Second compound 0.1 µM, first compound 0.03 µM
  viability, T/C: 0.58%
Second compound 0.1 µM, first compound 0.0949 µM
  viability, T/C: 0.44%
Second compound 0.1 µM, first compound 0.3 µM
  viability, T/C: 0.49%
Second compound 0.316 µM, first compound 0.000949 µM
  viability, T/C: 116%
Second compound 0.316 µM, first compound 0.003 µM
  viability, T/C: 56.7%
Second compound 0.316 µM, first compound 0.00949 µM
  viability, T/C: 3.51%
Second compound 0.316 µM, first compound 0.03 µM
  viability, T/C: 0.83%
Second compound 0.316 µM, first compound 0.0949 µM
  viability, T/C: 0.51%
Second compound 0.316 µM, first compound 0.3 µM
  viability, T/C: 0.91%
Second compound 1 µM, first compound 0.000949 µM
  viability, T/C: 128%
Second compound 1 µM, first compound 0.003 µM
  viability, T/C: 19.7%
Second compound 1 µM, first compound 0.00949 µM
  viability, T/C: 1.31%
Second compound 1 µM, first compound 0.03 µM
  viability, T/C: 0.56%
Second compound 1 µM, first compound 0.0949 µM
  viability, T/C: 0.77%
Second compound 1 µM, first compound 0.3 µM
  viability, T/C: 1.17%
Second compound 3.16 µM, first compound 0.000949 µM
  viability, T/C: 128%
Second compound 3.16 µM, first compound 0.003 µM
  viability, T/C: 13.9%
Second compound 3.16 µM, first compound 0.00949 µM
  viability, T/C: 0.9%
Second compound 3.16 µM, first compound 0.03 µM
  viability, T/C: 0.44%
Second compound 3.16 µM, first compound 0.0949 µM
  viability, T/C: 2.9%
Second compound 3.16 µM, first compound 0.3 µM
  viability, T/C: 1.57%
Second compound 10 µM, first compound 0.000949 µM
  viability, T/C: 115%
Second compound 10 µM, first compound 0.003 µM
  viability, T/C: 11.9%
Second compound 10 µM, first compound 0.00949 µM
  viability, T/C: 2.24%
Second compound 10 µM, first compound 0.03 µM
  viability, T/C: 1.62%
Second compound 10 µM, first compound 0.0949 µM
  viability, T/C: 0.46%
Second compound 10 µM, first compound 0.3 µM
  viability, T/C: 2.11%
